In the first assay the test system is NCIH929.1 cells. Put plainly: Cell viability assay for Table 2 (CellTiter-Glo 2.0, ATP quantification, 96 hr). Type of assay: cell-based. Particulars: 96 h, NCIH929.1 cell viability, 96 hr, top concentration 1 μM, 14 points half log titration; read-out: IC50. An excerpt: Cell Viability Assay for Table 2
CellTiter-Glo® 2.0 Assay was purchased from Promega (Madison, Wis., USA). NCIH929.1 cell line was purchased from ATCC (Manassas, Va., USA). Cell culture flasks and 384-well microplates were acquired from VWR (Radnor, Pa., USA).
`CC1(C(=O)N2CCN(Cc3ccc(Cc4ccc5c6c(cccc46)C(=O)N5C4CCC(=O)NC4=O)cc3)CC2)CCC1` (stereo not shown) [Compound 110, 3-(6-(4-((4-(1-methylcyclobutane-1-carbonyl)piperazin-1-yl)methyl)benzyl)-2-oxobenzo[cd]indol-1(2H)-yl)piperidine-2,6-dione]: the IC50 is below 1 nM.

In the case of `CC(C)(C)OC(=O)N1CCC(n2cc(Cc3ccc4c5c(cccc35)C(=O)N4C3CCC(=O)NC3=O)cn2)CC1` (racemic) [Compound 140, tert-butyl 4-(4-((1-(2,6-dioxopiperidin-3-yl)-2-oxo-1,2-dihydrobenzo[cd]indol-6-yl)methyl)-1H-pyrazol-1-yl)piperidine-1-carboxylate], the IC50 was below 1 nM.

As for `O=C1CCC(N2C(=O)c3cccc4c(Cc5ccc(CN6CCC7(CCCO7)CC6)cc5)ncc2c34)C(=O)N1` (stereo not shown) [Compound 267, 3-[24-[[4-(1-oxa-8-azaspiro[4.5]decan-8-ylmethyl)phenyl]methyl]-28-oxo-31,34-diazatricyclododeca-,2(22),7(23),21(25),24(31)-pentaen-34-yl]piperidine-2,6-dione], the IC50 was below 1 nM.

On to `O=C1CCC(N2C(=O)c3cccc4c(Cc5ccc(CN6CCN(S(=O)(=O)CC(F)(F)F)CC6)cc5)ccc2c34)C(=O)N1` (stereo not shown) [Compound 109, 3-(2-oxo-6-(4-((4-((2,2,2-trifIuoroethyl)sulfonyl)piperazin-1-yl)methyl)benzyl)benzo[cd]indol-1(2H)-yl)piperidine-2,6-dione], for which the IC50 is below 1 nM.

`O=C1CCC(N2C(=O)c3cccc4c(Cc5cnn(C6CCN(C(=O)C78CC(CO7)C8)CC6)c5)ccc2c34)C(=O)N1` (stereo not shown) [Compound 48, 3-(6-((1-(1-(2-oxabicyclo[2.1.1]hexane-1-carbonyl)piperidin-4-yl)-1H-pyrazol-4-yl)methyl)-2-oxobenzo[cd]indol-1(2H)-yl)piperidine-2,6-dione]: the IC50 is below 1 nM.

Turning to `CC(=O)N1CCN(Cc2ccc(Cc3ccc4c5c(cccc35)C(=O)N4C3CCC(=O)NC3=O)cc2)CC1` (stereo not shown) [Compound 108, 3-(6-(4-((4-acetylpiperazin-1-yl)methyl)benzyl)-2-oxobenzo[cd]indol-1(2H)-yl)piperidine-2,6-dione], the IC50 is below 1 nM.

Regarding `O=C1CCC(N2C(=O)c3cccc4c(Cc5ccc(CN6CCOCC6)cc5)ccc2c34)C(=O)N1` (stereo not shown) [Compound 218, 3-(6-(4-(morpholinomethyl)benzyl)-2-oxobenzo[cd]indol-1(2H)-yl)piperidine-2,6-dione], the IC50 is below 1 nM.

On to `CC1(n2cc(Cc3ccc4c5c(cccc35)C(=O)N4C3CCC(=O)NC3=O)cn2)CCN(C(=O)C2(C#N)CCCCC2)CC1` (stereo not shown) [Compound 72, 1-(4-(4-((1-(2,6-dioxopiperidin-3-yl)-2-oxo-1,2-dihydrobenzo[cd]indol-6-yl)methyl)-1H-pyrazol-1-yl)-4-methylpiperidine-1-carbonyl)cyclohexane-1-carbonitrile], for which the IC50 was below 1 nM.

Regarding `CC1(n2cc(Cc3ccc4c5c(cccc35)C(=O)N4C3CCC(=O)NC3=O)cn2)CCN(C(=O)C23COC(C2)C3)CC1` (stereo not shown) [Compound 71, 3-(6-{1-[4-Methyl-1-(2-oxa-bicyclo[2.1.1]hexane-4-carbonyl)-piperidin-4-yl]-1H-pyrazol-4-ylmethyl}-2-oxo-2H-benzo[cd]indol-1-yl)-piperidine-2,6-dione], the IC50 was below 1 nM.

Regarding `O=C1CCC(N2C(=O)c3cccc4c(Cc5ccc(CN6CCN(c7ccc(F)cc7F)CC6)cc5)ccc2c34)C(=O)N1` (single isomer, unassigned) [Compound 256, 3-(6-(4-((4-(2,4-difluorophenyl)piperazin-1-yl)methyl)benzyl)-2-oxobenzo[cd]indol-1(2H)-yl)piperidine-2,6-dione], the half-inhibitory concentration (IC50) was below 1 nM.

As for `N#Cc1ccc(N2CCN(Cc3ccc(Cc4ccc5c6c(cccc46)C(=O)N5C4CCC(=O)NC4=O)cc3)C(=O)C2)c(F)c1` (stereo not shown) [Compound 172, 4-[4-[[4-[[1-(2,6-dioxo-3-piperidyl)-2-oxo-benzo[cd]indol-6-yl]methyl]phenyl]methyl]-3-oxo-piperazin-1-yl]-3-fluoro-benzonitrile], the IC50 is below 1 nM.

Turning to `O=C1CCC(N2C(=O)c3cccc4c(Cc5cnn(C6CCN(CC7(F)CC7)CC6)c5)ccc2c34)C(=O)N1` (stereo not shown) [Compound 65, 3-(6-((1-(1-((1-fluorocyclopropyl)methyl)piperidin-4-yl)-1H-pyrazol-4-yl)methyl)-2-oxobenzo[cd]indol-1(2H)-yl)piperidine-2,6-dione], the IC50 is below 1 nM.

Take `CC(C)(Cl)C(=O)N1CCC(C)(n2cc(Cc3ccc4c5c(cccc35)C(=O)N4C3CCC(=O)NC3=O)cn2)CC1` (stereo not shown) [Compound 97, 3-(6-((1-(1-(2-chloro-2-methylpropanoyl)-4-methylpiperidin-4-yl)-1H-pyrazol-4-yl)methyl)-2-oxobenzo[cd]indol-1(2H)-yl)piperidine-2,6-dione]: the IC50 is below 1 nM.

For `CC1(n2cc(Cc3ccc4c5c(cccc35)C(=O)N4C3CCC(=O)NC3=O)cn2)CCN(C(=O)C2(C#N)CCC2)CC1` (stereo not shown) [Compound 86, 1-(4-(4-((1-(2,6-dioxopiperidin-3-yl)-2-oxo-1,2-dihydrobenzo[cd]indol-6-yl)methyl)-1H-pyrazol-1-yl)-4-methylpiperidine-1-carbonyl)cyclobutane-1-carbonitrile], the IC50 was below 1 nM.

Regarding `N#Cc1ccc(N2CCC(Cc3ccc(Cc4ccc5c6c(cccc46)C(=O)N5C4CCC(=O)NC4=O)cc3)CC2)c(F)c1` (stereo not shown) [Compound 151, 4-(4-(4-((1-(2,6-dioxopiperidin-3-yl)-2-oxo-1,2-dihydrobenzo[cd]indol-6-yl)methyl)benzyl)piperidin-1-yl)-3-fluorobenzonitrile], the IC50 is below 1 nM.

Staying with this assay, now noted: NCIH929.1 cell viability, 96 hr, top concentration 1 μM, 14 points half log titration; read-out: IC50.
For the molecule `O=C1CCC(N2C(=O)c3cccc4c(Cc5cnn(C6CCN(C7CCCC78CCC8)CC6)c5)ccc2c34)C(=O)N1` (single isomer, unassigned) [Compound 179, 3-[2-oxo-6-[[1-[1-[spiro[3.4]octan-8-yl]-4-piperidyl]pyrazol-4-yl]methyl]benzo[cd]indol-1-yl]piperidine-2,6-dione], the IC50 was below 1 nM.

Turning to `CC(c1ccc(Cc2ccc3c4c(cccc24)C(=O)N3C2CCC(=O)NC2=O)cc1)N1CCN(c2ccccc2F)CC1` (single isomer, unassigned) [Compound 285, 3-[6-[[4-[1-[4-(2-fluorophenyl)piperazin-1-yl]ethyl]phenyl]methyl]-2-oxo-benzo[cd]indol-1-yl]piperidine-2,6-dione], the IC50 is below 1 nM.

In the case of `N#Cc1ccc(N2CCN(Cc3cnn(Cc4ccc5c6c(cccc46)C(=O)N5C4CCC(=O)NC4=O)c3)CC2)c(F)c1` (single isomer, unassigned) [Compound 130, 4-[4-[[1-[[1-[2,6-dioxo-3-piperidyl]-2-oxo-benzo[cd]indol-6-yl]methyl]pyrazol-4-yl]methyl]piperazin-1-yl]-3-fluoro-benzonitrile], the IC50 is below 1 nM.

Turning to `CC(C1CC1)N1CCC(n2cc(Cc3ccc4c5c(cccc35)C(=O)N4C3CCC(=O)NC3=O)cn2)CC1` (single isomer, unassigned) [Compound 283, 3-(6-((1-(1-(1-cyclopropylethyl)piperidin-4-yl)-1H-pyrazol-4-yl)methyl)-2-oxobenzo[cd]indol-1(2H)-yl)piperidine-2,6-dione], the IC50 was below 1 nM.

As a reminder, the IC50 is the midpoint of a concentration-inhibition curve.

Values taken from US20230082430A1 (C4 Therapeutics, Inc., priority 2019, published 2023).
